The target in test [1] is T1, HCV polymerase H544 1b 3X (Hepatitis C virus genotype 1b, UniProt P26663).
T1 construct: a region encoding NS5B (J Virol 1991 March, 65(3), 1105-13, 544 amino acids after deletion of 47 amino acids on the C-terminal); 6 His (C); made in house; host or cells: Escherichia coli
Briefly: Assay of enzyme (HCV polymerase) inhibitory activity, H544 1b 3X. The format is biochemical, HCV BK strain. The text has this: The evaluation of the HCV polymerase inhibitory activity of the compound of the present invention is explained in the following. This polymerase is an enzyme coded for by the non-structural protein region called NS5B on the genome RNA of HCV (EMBO J., 15:12-22, 1996).
Using, as a template, a cDNA clone corresponding to the full length genome RNA of HCV BK strain obtained from the blood of a patient with hepatitis C, a region encoding NS5B (J Virol 1991 March, 65(3), 1105-13, 544 amino acids after deletion of 47 amino acids on the C-terminal) was amplified by PCR. The objective gene was prepared by adding a 6 His tag {base pair encoding 6 continuous histidine (His)} to the 3′ end thereof and transformed to Escherichia coli. The Escherichia coli capable of producing the objective protein was cultured. The obtained cells were suspended in a buffer solution and crushed in a microfluidizer. The supernatant was obtained by centrifugation and applied to various column chromatographys {mono-S, Sephacryl S-200 (Pharmacia)}, inclusive of metal chelate chromatography, to give a standard enzyme product.
Using a synthetic primer designed based on the sequence of HCV genomic 3′ untranslated region, a DNA fragment (148 bp) containing polyU and 3′X sequence was entirely synthesized and cloned into plasmid pBluescript SK II (+) (Stratagene). The cDNA encoding full length NS5B, which was prepared in i) above, was digested with restriction enzyme KpnI to give a cDNA fragment containing the nucleotide sequence of from the restriction enzyme cleavage site to the termination codon. This cDNA fragment was inserted into the upstream of 3′ untranslated region of the DNA in pBluescript SK II(+) and ligated. The about 450 bp inserted DNA sequence was used as a template in the preparation of substrate RNA. This plasmid was cleaved immediately after the 3′X sequence, linearized and purified by phenol-chloroform treatment and ethanol precipitation to give DNA.
RNA was synthesized (37° C., 3 hr) by run-off method using this purified DNA as a template, a promoter of pBluescript SK II(+), MEGAscript RNA synthesis kit (Ambion) and T7 RNA polymerase. DNase I was added and the mixture was incubated for 1 hr. The template DNA was removed by decomposition to give a crude RNA product. This crude product was treated with phenol-chloroform and purified by ethanol precipitation to give the objective substrate RNA.
This RNA was applied to formaldehyde denaturation agarose gel electrophoresis to confirm the quality thereof and preserved at −80° C.
A test substance (compound of the present invention) and a reaction mixture (30 μl) having the following composition were reacted at 25° C. for 90 min. 10% Trichloroacetic acid at 4° C. and 1% sodium pyrophosphate solution (150 μl) were added to this reaction mixture to stop the reaction. The reaction mixture was left standing in ice for 15 min to insolubilize RNA. This RNA was trapped on a glass filter (Whatman GF/C and the like) upon filtration by suction. This filter was washed with a solution containing 1% trichloroacetic acid and 0.1% sodium pyrophosphate, washed with 90% ethanol and dried. A liquid scintillation cocktail (Packard) was added and the radioactivity of RNA synthesized by the enzyme reaction was measured on a liquid scintillation counter.
The HCV polymerase inhibitory activity (IC50) of the compound of the present invention was calculated from the values of radioactivity of the enzyme reaction with and without the test substance.
The results are shown in Table 18, wherein each symbol means that IC50 falls within the following range.
Reaction mixture: HCV polymerase (0.5 μg/ml) obtained in i), substrate RNA (5 μg/ml) obtained in ii), ATP (50 μM), GTP (50 μM), CTP (50 μM), UTP (2 μM), [5,6-^3H] UTP (46 Ci/mmol (Amersham), 1 μCi) 20 mM Tris-HCl (pH 7.5), EDTA (1 mM), MgCl2 (5 mM), NaCl (50 mM), DTT (1 mM), BSA (0.01%)

Test [2] deals with T2, HCV polymerase H544 1a 3X (UniProt P27958).
T2 construct: fused on or other part: 6 His tag at the C-terminus, for the BK (1b) enzyme
Briefly: Assay of enzyme (HCV polymerase) inhibitory activity, H544 1a 3X. The format is biochemical.

[3] abbreviates: read-out: H544 1a 3X IC50, 25° C., 90 min, [5,6-3H]UTP incorporation.
The mark [4] stands for this setting: 25° C., 90 min, [5,6-3H]UTP incorporation, read-out: H544 1a 3X IC50.

The structures appear in SMILES notation. Counter-ions that a name gives are not always drawn. Like-named read-outs stand apart in the source and are kept apart here.

T1 sequence (P26663 2420-2963): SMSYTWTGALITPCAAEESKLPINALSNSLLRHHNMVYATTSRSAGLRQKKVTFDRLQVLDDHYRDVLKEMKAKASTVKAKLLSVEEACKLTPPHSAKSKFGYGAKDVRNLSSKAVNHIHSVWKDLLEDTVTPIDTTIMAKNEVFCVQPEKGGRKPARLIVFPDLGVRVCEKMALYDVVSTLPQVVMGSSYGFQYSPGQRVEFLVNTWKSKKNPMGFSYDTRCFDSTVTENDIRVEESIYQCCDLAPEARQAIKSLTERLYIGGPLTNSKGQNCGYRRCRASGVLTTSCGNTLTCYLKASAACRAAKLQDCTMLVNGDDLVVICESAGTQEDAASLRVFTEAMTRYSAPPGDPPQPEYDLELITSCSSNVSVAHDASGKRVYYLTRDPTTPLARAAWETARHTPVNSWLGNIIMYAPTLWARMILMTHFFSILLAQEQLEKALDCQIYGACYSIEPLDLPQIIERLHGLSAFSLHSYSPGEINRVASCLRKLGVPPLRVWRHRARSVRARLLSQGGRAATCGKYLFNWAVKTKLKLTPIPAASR

For the molecule `O=C(O)c1cc2nc(-c3ccc(OCc4cc(N5CCCC5=O)ccc4-c4ccc(Cl)cc4)cc3)n(C3CCCCC3)c2s1` [Example 3, 2-{4-[4′-chloro-4-(2-oxopyrrolidin-1-yl)biphenyl-2-ylmethoxy]phenyl}-3-cyclohexyl-3H-thieno[2,3-d]imidazole-5-carboxylic acid hydrochloride], the IC50 in test [1] is under 100 nM; in test [2] (setting [3]) it was 100 to 1000 nM.

Turning to `O=C(O)c1cc2nc(-c3ccc(OCc4cc(N5CCCC5=O)ccc4N4CCOCC4)cc3)n(C3CCCCC3)c2s1` [Example 5, 3-cyclohexyl-2-{4-[2-morpholino-5-(2-oxopyrrolidin-1-yl)benzyloxy]phenyl}-3H-thieno[2,3-d]imidazole-5-carboxylic acid], the IC50 in test [1] and in test [2] (setting [4]) was 100 to 1000 nM throughout.

Consider `Cn1c(-c2ccc(OCc3ccccc3)cc2)c(C2CCCCC2)c2sc(C(=O)O)cc21` [Example 12, 5-(4-benzyloxyphenyl)-6-cyclohexyl-4-methyl-4H-thieno[3,2-b]pyrrole-2-carboxylic acid], for which the IC50 in test [1] and in test [2] (setting [4]) was 100 to 1000 nM throughout.

On to `CN(C)C(=O)Cn1c(-c2ccc(OCc3ccccc3)cc2)c(C2CCCCC2)c2sc(C(=O)O)cc21` [Example 14, 5-(4-benzyloxyphenyl)-6-cyclohexyl-4-dimethylcarbamoylmethyl-4H-thieno[3,2-b]pyrrole-2-carboxylic acid], for which the IC50 in test [1] and in test [2] (setting [4]) was under 100 nM throughout.

`Cn1c(-c2ccc(OCc3cc(N4CCCC4=O)ccc3N3CCOCC3)cc2)c(C2CCCCC2)c2sc(C(=O)O)cc21` [Example 15, 6-cyclohexyl-4-methyl-5-{4-[2-morpholino-5-(2-oxopyrrolidin-1-yl)benzyloxy]phenyl}-4H-thieno[3,2-b]pyrrole-2-carboxylic acid hydrochloride]: the IC50 in test [1] and in test [2] (setting [4]) was under 100 nM throughout.

In the case of `CC(=O)N(C)c1ccc(N2CCOCC2)c(COc2ccc(-c3c(C4CCCCC4)c4sc(C(=O)O)cc4n3C)cc2)c1` [Example 17, 5-{4-[5-(N-acetyl-N-methylamino)-2-morpholinobenzyloxy]phenyl}-6-cyclohexyl-4-methyl-4H-thieno[3,2-b]pyrrole-2-carboxylic acid hydrochloride], the IC50 in test [1] and in test [2] (setting [3]) was under 100 nM in each case.

On to `Cn1c(-c2ccc(OCc3cc(N4CCCC4=O)ccc3N3CCN(S(C)(=O)=O)CC3)cc2)c(C2CCCCC2)c2sc(C(=O)O)cc21` [Example 18, 6-cyclohexyl-5-{4-[2-(4-methanesulfonylpiperazin-1-yl)-5-(2-oxopyrrolidin-1-yl)benzyloxy]phenyl}-4-methyl-4H-thieno[3,2-b]pyrrole-2-carboxylic acid hydrochloride], for which the IC50 in test [1] and in test [2] (setting [4]) was under 100 nM throughout.

Regarding `Cn1c(-c2ccc(OCc3cc(N)ccc3N3CCN(S(C)(=O)=O)CC3)cc2)c(C2CCCCC2)c2sc(C(=O)O)cc21` [Example 19, 5-(4-[5-amino-2-(4-methanesulfonylpiperazin-1-yl)benzyloxy]phenyl)-6-cyclohexyl-4-methyl-4H-thieno[3,2-b]pyrrole-2-carboxylic acid hydrochloride], the IC50 in test [1] and in test [2] (setting [4]) was under 100 nM each time.

Regarding `CC(=O)N(C)c1ccc(N2CCN(S(C)(=O)=O)CC2)c(COc2ccc(-c3c(C4CCCCC4)c4sc(C(=O)O)cc4n3C)cc2)c1` [Example 20, 5-{4-[5-(N-acetyl-N-methylamino)-2-(4-methanesulfonylpiperazin-1-yl)benzyloxy]phenyl}-6-cyclohexyl-4-methyl-4H-thieno[3,2-b]pyrrole-2-carboxylic acid hydrochloride], the IC50 in test [1] and in test [2] (setting [4]) was under 100 nM each time.

For `COc1ccc(-c2c(C3CCCCC3)c3sc(C(=O)O)cc3n2CC(=O)N(C)C)cc1` [Example 21, 6-cyclohexyl-4-dimethylcarbamoylmethyl-5-(4-methoxyphenyl)-4H-thieno[3,2-b]pyrrole-2-carboxylic acid], the IC50 is under 100 nM in test [1] and 100 to 1000 nM in test [2] (setting [4]).

With `Cn1c(-c2ccc(OCc3cc(S(C)(=O)=O)ccc3N3CCOCC3)cc2)c(C2CCCCC2)c2sc(C(=O)O)cc21` [Example 23, 6-cyclohexyl-5-[4-(5-methanesulfonyl-2-morpholinobenzyloxy)phenyl]-4-methyl-4H-thieno[3,2-b]pyrrole-2-carboxylic acid hydrochloride], the IC50 in test [1] and in test [2] (setting [4]) was under 100 nM throughout.

For the molecule `CCOC(=O)c1cc2c(s1)c(C1CCCCC1)c(-c1ccc(OCc3cc(N4CCCC4=O)ccc3N3CCOCC3)cc1)n2C` [Example 24, ethyl 6-cyclohexyl-4-methyl-5-{4-[2-morpholino-5-(2-oxopyrrolidin-1-yl)benzyloxy]phenyl}-4H-thieno[3,2-b]pyrrole-2-carboxylate hydrochloride], the IC50 in test [1] and in test [2] (setting [4]) was 100 to 1000 nM throughout.

As for `COc1ccc(-c2c(C3CCCCC3)c3sc(C(=O)O)cc3n2CC(=O)N2CCOCC2)cc1` [Example 25, 6-cyclohexyl-5-(4-methoxyphenyl)-4-morpholinocarbonylmethyl-4H-thieno[3,2-b]pyrrole-2-carboxylic acid], the values for the IC50 in test [1] and in test [2] (setting [4]) were under 100 nM and 100 to 1000 nM, respectively.

Take `CCN1CCN(C(=O)Cn2c(-c3ccc(OC)cc3)c(C3CCCCC3)c3sc(C(=O)O)cc32)CC1` [Example 26, 6-cyclohexyl-4-(4-ethylpiperazin-1-yl)carbonylmethyl-5-(4-methoxyphenyl)-4H-thieno[3,2-b]pyrrole-2-carboxylic acid]: the IC50 in test [1] was under 100 nM; in test [2] (setting [4]) it was 100 to 1000 nM.

With `COc1ccc(-c2c(C3CCCCC3)c3sc(C(=O)O)cc3n2CC(=O)N2CCC(N(C)C)CC2)cc1` [Example 27, 6-cyclohexyl-4-(4-dimethylaminopiperidino)carbonylmethyl-5-(4-methoxyphenyl)-4H-thieno[3,2-b]pyrrole-2-carboxylic acid], the IC50 in test [1] and in test [2] (setting [4]) was under 100 nM in each case.

With `CC(C)C(=O)Nc1ccc(N2CCOCC2)c(COc2ccc(-c3c(C4CCCCC4)c4sc(C(=O)O)cc4n3C)cc2)c1` [Example 29, 6-cyclohexyl-5-[4-(5-isobutyrylamino-2-morpholinobenzyloxy)phenyl]-4-methyl-4H-thieno[3,2-b]pyrrole-2-carboxylic acid hydrochloride], the IC50 in test [1] and in test [2] (setting [4]) was under 100 nM in each case.

Consider `CC(C)C(=O)N(C)c1ccc(N2CCOCC2)c(COc2ccc(-c3c(C4CCCCC4)c4sc(C(=O)O)cc4n3C)cc2)c1` [Example 30, 6-cyclohexyl-5-{4-[5-(N-isobutyryl-N-methylamino)-2-morpholinobenzyloxy]phenyl}-4-methyl-4H-thieno[3,2-b]pyrrole-2-carboxylic acid hydrochloride], for which the IC50 in test [1] and in test [2] (setting [4]) was under 100 nM in each case.

For `CC(C(=O)N(C)c1ccc(N2CCOCC2)cc1)n1c(-c2ccc(OCc3ccccc3)cc2)c(C2CCCCC2)c2sc(C(=O)O)cc21` (centres unmarked) [Example 60, 5-(4-benzyloxyphenyl)-6-cyclohexyl-4-{1-[N-methyl-N-(4-morpholinophenyl)carbamoyl]ethyl}-4H-thieno[3,2-b]pyrrole-2-carboxylic acid hydrochloride], in test [1], the IC50 lay within 100 to 1000 nM.
